# System: Plasmodium falciparum
# Assay: In vitro antimalarial activity against chloroquine-sensitive Plasmodium falciparum NF 54
# Format: functional, organism-based
row,Structure (SMILES),IC50
1,COc1ccc(COC2(C)CCC3CC2OO[C@@]3(C)CS(=O)(=O)c2ccccc2)cc1 (some centres undefined),14 nM
2,CC(=O)CC(=O)OC1(C)CCC2CC1OO[C@@]2(C)CS(=O)(=O)c1ccccc1 (some centres undefined),46 nM
3,CC(=O)OC1(C)CCC2CC1OO[C@]2(C)CS(=O)(=O)c1ccccc1 (some centres undefined),17 nM
4,CC1(CSc2ccccc2)OOC2CC1CC[C@@]2(C)O.CC1(CSc2ccccc2)OOC2CC1CC[C@]2(C)O (some centres undefined),> 2500 nM
5,CC1(OC(=O)C(=O)N(Cc2ccccc2)Cc2ccccc2)CCC2CC1OO[C@]2(C)CS(=O)(=O)c1ccccc1 (some centres undefined),81 nM
6,CCOC(=O)C(=O)OC1(C)CCC2CC1OO[C@]2(C)CS(=O)(=O)c1ccccc1 (some centres undefined),140 nM
7,CC1(O)CCC2CC1OO[C@@]2(C)CS(=O)(=O)c1ccccc1 (some centres undefined),55 nM
8,CC1(O)CCC2CC1OO[C@]2(C)CS(=O)(=O)c1ccccc1 (some centres undefined),89 nM
9,C[C@@H]1CC[C@H]2[C@@H](C)C(=O)O[C@@H]3O[C@@]4(C)CC[C@@H]1[C@]32OO4 [ARTEMISININ],9.3 nM
10,CC(=O)CC(=O)OC1(C)CCC2CC1OO[C@]2(C)CS(=O)(=O)c1ccccc1 (some centres undefined),73 nM
11,CC1(OC(=O)C(=O)N(Cc2ccccc2)Cc2ccccc2)CCC2CC1OO[C@@]2(C)CS(=O)(=O)c1ccccc1 (some centres undefined),21 nM
12,CC(=O)OC1(C)CCC2CC1OO[C@@]2(C)CS(=O)(=O)c1ccccc1 (some centres undefined),17 nM
13,CCOC(=O)C(=O)OC1(C)CCC2CC1OO[C@@]2(C)CS(=O)(=O)c1ccccc1 (some centres undefined),170 nM
14,"C[C@@H]1C(=O)C[C@H]2CC1OO[C@@]2(C)/C=C\c1ccc(C(F)(F)F)cc1C(F)(F)F (single isomer, unassigned) [ARTEFLENE]",71 nM
